We go through eight compounds from US10670605B2, “Cysteine reactive probes and uses thereof” (The Scripps Research Institute, priority 2015, dated 2020).

The target in experiment [1] is cysteines in MDA-MB-231 and Ramos cells (Homo sapiens, UniProt O14980). The experiment can be described thus: Competitive isoTOP-ABPP in situ (fragment-treated cells). Format: cell-based.
The target in experiment [2] is T1, cysteines in MDA-MB-231 and Ramos cells (Homo sapiens, UniProt P29590).
T1 sequence (P29590 1-882): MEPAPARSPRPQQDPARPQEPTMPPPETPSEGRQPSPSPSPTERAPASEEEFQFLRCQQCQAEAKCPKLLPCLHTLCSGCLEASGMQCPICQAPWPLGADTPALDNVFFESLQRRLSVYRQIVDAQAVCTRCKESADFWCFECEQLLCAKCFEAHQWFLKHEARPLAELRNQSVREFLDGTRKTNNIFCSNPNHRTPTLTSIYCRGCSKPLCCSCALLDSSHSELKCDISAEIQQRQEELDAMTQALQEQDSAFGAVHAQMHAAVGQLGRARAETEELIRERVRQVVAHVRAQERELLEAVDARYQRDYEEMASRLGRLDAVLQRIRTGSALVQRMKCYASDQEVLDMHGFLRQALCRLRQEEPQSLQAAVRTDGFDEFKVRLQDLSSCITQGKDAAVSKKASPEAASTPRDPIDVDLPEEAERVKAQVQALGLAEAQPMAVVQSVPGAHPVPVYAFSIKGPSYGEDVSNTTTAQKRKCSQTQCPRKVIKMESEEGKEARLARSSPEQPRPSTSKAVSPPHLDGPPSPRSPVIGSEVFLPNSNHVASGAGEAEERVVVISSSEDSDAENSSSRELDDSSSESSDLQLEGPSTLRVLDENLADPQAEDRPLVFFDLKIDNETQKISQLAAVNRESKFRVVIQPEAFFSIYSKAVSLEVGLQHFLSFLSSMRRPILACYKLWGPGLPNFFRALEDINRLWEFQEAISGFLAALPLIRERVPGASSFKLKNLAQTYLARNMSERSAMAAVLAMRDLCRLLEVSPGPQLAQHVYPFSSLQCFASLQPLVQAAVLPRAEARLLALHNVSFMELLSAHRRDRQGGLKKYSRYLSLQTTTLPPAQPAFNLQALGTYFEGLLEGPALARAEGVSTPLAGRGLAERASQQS
The experiment is described as above. Format: cell-based.

Experiment [3] concerns the target cysteines in MDA-MB-231 and Ramos cells (Homo sapiens, UniProt Q13630). The experiment is described as above. The class given is cell-based. Particulars: 200 μM, insitu, 231.
Experiment [4] concerns the target T2, cysteines in MDA-MB-231 and Ramos cells (Homo sapiens, UniProt Q9NQ88).
T2 sequence (Q9NQ88 1-270): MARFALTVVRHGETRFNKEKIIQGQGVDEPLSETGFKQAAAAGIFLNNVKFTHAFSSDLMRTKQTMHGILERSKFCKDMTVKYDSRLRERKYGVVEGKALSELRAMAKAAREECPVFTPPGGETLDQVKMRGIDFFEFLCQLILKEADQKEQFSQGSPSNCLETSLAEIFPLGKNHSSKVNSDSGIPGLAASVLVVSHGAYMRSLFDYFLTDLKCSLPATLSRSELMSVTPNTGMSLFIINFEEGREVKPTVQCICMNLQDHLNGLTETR
Described as above. Format: cell-based.

The target of experiment [5] is T3, cysteines in MDA-MB-231 and Ramos cells (Homo sapiens, UniProt Q9Y5Y2).
T3 sequence (Q9Y5Y2 1-271): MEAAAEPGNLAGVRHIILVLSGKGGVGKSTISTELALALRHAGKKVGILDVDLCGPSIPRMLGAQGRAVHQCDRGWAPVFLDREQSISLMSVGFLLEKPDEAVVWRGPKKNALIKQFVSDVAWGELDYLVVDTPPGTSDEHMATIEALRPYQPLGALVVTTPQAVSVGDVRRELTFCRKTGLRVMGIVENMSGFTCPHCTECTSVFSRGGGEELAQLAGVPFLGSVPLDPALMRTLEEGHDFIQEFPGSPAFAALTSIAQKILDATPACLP
The description is as above. Format: cell-based.

Experiment [6] has as its target T4, cysteines in MDA-MB-231 and Ramos cells (Homo sapiens, UniProt P35754).
T4 sequence (P35754 1-106): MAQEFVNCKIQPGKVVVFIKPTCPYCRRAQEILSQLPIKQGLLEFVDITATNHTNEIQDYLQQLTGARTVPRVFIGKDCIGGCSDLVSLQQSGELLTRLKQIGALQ
Described as above. Format: cell-based.

The target in experiment [7] is cysteines in MDA-MB-231 and Ramos cells (Homo sapiens, UniProt Q00765). The experiment is described as above. The class given is cell-based.
cysteines in MDA-MB-231 and Ramos cells (Homo sapiens, UniProt Q00765), sequence (Q00765 whole entry): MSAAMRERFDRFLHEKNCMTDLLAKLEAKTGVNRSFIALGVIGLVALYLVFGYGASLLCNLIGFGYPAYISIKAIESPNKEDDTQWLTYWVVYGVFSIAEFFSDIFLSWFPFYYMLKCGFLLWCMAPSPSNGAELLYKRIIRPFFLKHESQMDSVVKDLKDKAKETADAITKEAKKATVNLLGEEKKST
Experiment [8] has as its target T5, cysteines in MDA-MB-231 and Ramos cells (Homo sapiens, UniProt Q07065).
T5 sequence (Q07065 1-602): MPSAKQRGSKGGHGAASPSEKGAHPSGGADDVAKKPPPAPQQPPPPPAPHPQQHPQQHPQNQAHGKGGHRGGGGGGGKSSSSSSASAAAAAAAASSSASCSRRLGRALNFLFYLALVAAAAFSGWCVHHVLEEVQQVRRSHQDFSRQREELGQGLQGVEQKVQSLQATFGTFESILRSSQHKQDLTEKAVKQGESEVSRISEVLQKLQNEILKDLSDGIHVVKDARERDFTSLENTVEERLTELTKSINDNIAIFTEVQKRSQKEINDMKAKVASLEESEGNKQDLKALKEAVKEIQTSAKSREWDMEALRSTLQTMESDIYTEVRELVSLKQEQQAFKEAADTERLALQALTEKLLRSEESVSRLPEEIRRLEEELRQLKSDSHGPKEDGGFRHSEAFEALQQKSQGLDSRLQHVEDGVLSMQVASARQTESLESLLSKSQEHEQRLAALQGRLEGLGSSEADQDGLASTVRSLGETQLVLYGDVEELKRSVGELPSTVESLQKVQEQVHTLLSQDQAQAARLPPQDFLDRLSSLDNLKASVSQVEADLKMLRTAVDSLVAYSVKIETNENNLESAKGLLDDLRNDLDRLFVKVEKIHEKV
Described as above. Format: cell-based.

Experiment [9] deals with cysteines in MDA-MB-231 and Ramos cells (Homo sapiens, UniProt Q9BRF8). Described as above. The class given is cell-based.
cysteines in MDA-MB-231 and Ramos cells (Homo sapiens, UniProt Q9BRF8), sequence (Q9BRF8 whole entry): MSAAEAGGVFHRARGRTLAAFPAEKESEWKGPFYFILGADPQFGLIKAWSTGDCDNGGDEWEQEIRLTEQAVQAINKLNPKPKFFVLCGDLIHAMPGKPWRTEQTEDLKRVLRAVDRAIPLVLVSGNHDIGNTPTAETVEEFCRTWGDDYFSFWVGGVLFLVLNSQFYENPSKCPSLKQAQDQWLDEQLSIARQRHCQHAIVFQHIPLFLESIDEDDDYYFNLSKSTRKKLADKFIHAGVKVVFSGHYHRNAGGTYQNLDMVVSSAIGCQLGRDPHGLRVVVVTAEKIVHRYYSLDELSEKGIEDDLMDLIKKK
Experiment [10] addresses cysteines in MDA-MB-231 and Ramos cells (Homo sapiens, UniProt Q9Y6G9). Described as above. Format: cell-based. Particulars: 200 μM, insitu.
In experiment [11] the target is cysteines in MDA-MB-231 and Ramos cells (Homo sapiens, UniProt P49189). Described as above. Format: cell-based. Particulars: 200 μM, insitu, 231.
cysteines in MDA-MB-231 and Ramos cells (Homo sapiens, UniProt P49189), sequence (P49189 whole entry): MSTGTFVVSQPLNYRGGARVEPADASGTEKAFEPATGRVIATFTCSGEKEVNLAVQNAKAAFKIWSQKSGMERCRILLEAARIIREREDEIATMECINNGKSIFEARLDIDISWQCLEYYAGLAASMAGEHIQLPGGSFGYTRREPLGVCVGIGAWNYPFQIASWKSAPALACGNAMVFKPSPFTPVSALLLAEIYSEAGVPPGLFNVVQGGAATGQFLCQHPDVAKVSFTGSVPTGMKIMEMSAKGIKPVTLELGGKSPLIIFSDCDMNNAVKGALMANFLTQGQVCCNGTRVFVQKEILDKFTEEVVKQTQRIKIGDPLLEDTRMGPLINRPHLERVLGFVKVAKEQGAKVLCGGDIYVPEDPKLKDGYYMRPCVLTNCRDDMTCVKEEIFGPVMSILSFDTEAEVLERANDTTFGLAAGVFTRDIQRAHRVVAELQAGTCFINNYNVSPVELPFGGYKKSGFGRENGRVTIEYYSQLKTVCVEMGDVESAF
The target in a further experiment is O00541_C272 (Homo sapiens, UniProt O00541). The experiment can be described thus: Competitive isoTOP-ABPP, cell lysates. The class given is binding. As to conditions: 500 μm in-vitro ramos.
O00541_C272, sequence (O00541 whole entry, looked up): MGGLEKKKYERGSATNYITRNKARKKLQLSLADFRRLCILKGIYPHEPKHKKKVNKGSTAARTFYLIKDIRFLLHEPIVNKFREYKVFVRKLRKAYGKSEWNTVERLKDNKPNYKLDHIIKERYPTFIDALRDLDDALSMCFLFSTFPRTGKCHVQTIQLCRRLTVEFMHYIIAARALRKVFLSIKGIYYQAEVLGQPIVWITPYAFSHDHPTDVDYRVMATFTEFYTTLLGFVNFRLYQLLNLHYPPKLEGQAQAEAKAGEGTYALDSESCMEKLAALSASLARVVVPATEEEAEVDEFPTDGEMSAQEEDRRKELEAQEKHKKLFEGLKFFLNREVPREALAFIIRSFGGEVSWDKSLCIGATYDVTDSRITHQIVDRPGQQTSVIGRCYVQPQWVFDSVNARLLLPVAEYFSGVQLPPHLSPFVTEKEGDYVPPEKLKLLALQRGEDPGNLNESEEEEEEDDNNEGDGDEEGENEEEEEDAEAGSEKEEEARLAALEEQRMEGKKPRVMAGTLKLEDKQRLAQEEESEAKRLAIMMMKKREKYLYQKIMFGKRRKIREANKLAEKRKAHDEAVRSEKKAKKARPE

cysteines in MDA-MB-231 and Ramos cells (Homo sapiens, UniProt O14980), sequence (O14980 whole entry, the tested form may be a part): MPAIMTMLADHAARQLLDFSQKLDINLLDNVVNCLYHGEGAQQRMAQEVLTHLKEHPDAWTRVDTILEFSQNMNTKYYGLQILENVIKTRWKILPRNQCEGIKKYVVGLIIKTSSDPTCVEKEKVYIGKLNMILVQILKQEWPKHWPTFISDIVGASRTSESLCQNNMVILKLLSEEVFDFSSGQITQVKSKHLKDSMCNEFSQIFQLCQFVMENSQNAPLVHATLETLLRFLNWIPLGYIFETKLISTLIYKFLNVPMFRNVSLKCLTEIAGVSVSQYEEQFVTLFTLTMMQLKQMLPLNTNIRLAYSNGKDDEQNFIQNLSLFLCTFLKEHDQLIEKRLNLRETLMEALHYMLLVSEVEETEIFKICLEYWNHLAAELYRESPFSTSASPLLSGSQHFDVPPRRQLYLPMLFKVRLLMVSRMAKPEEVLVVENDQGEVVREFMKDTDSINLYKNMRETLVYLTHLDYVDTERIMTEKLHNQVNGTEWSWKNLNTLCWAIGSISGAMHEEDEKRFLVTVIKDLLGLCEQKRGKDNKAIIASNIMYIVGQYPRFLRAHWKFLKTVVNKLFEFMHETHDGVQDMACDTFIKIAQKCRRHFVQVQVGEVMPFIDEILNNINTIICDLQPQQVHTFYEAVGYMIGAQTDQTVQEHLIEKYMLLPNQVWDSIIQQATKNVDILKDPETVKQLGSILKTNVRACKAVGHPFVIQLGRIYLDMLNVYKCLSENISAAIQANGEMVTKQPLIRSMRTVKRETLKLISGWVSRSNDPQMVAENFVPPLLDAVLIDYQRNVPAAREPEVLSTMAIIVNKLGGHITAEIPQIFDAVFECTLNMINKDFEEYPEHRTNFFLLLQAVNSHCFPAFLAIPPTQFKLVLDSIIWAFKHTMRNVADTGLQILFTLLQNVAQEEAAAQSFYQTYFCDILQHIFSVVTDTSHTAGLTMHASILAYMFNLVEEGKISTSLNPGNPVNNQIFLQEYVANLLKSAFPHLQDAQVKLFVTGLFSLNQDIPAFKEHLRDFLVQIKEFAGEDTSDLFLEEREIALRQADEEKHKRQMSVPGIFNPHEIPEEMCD
cysteines in MDA-MB-231 and Ramos cells (Homo sapiens, UniProt Q9Y6G9), sequence (Q9Y6G9 whole entry): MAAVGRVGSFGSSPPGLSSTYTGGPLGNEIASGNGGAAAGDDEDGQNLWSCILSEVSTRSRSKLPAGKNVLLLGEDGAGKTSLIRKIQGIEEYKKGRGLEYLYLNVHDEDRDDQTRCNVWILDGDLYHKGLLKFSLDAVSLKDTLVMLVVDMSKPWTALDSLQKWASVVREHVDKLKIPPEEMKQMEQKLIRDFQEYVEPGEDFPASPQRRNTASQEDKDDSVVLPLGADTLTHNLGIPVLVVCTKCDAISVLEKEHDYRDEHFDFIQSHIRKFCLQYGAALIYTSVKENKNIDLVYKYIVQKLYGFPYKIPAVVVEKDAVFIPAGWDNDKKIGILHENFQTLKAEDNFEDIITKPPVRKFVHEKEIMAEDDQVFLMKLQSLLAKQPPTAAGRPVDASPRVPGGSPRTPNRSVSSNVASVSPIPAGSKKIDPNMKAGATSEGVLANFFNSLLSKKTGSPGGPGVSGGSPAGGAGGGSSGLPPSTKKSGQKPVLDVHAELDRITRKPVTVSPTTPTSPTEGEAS
cysteines in MDA-MB-231 and Ramos cells (Homo sapiens, UniProt Q13630), sequence (Q13630 whole entry): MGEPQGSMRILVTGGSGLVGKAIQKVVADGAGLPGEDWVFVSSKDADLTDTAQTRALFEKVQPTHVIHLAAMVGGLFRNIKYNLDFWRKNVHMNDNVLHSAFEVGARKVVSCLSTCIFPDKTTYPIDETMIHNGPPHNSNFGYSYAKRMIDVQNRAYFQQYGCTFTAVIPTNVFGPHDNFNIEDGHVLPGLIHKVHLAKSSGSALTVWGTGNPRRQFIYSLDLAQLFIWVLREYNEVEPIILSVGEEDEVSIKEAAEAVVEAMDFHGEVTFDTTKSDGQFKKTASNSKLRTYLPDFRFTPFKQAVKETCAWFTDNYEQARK

As for `COc1ccc2c(c1)CCCN2C(=O)CCl` [compound 2], the “isoTOP-ABPP reactivity O14980_0528 XPO1” value in [1] (200 μM, insitu, 231) was determined as 20.0. In addition, the “isoTOP-ABPP reactivity P29590_C389 PML” value in [2] (200 μM, insitu, 231) is listed as 15.6. Besides, the “isoTOP-ABPP reactivity Q13630_C116 TSTA3” value in experiment [3] came out at 20.0. Also, in experiment [4] (200 μM, insitu, 231), the “isoTOP-ABPP reactivity Q9NQ88_C114 TIGAR” value is listed as 2.8 and the “isoTOP-ABPP reactivity Q9NQ88_C161 TIGAR” value came to 6.0. Moreover, in experiment [5] (200 μM, insitu, 231), the “isoTOP-ABPP reactivity Q9Y5Y2_C72 NUBP2” value is given as 5.3.
For `Cn1cc(S(=O)(=O)N2CCOCC2)cc1C(=O)NC(=O)CCl` [compound 11], in experiment [1] (100 μM in situ 231), the “isoTOP-ABPP ratio O14980_C528” value is 0.7. Moreover, in experiment [2] (100 μM in situ 231), the “isoTOP-ABPP ratio P29590_C389” value worked out at 0.5. Also, the “isoTOP-ABPP ratio P35754_C23” value in experiment [6] (100 μM in situ 231) worked out at 20.0. Moreover, the “isoTOP-ABPP ratio Q00765_C18” value in experiment [7] (100 μM in situ 231) stood at 0.8. The “isoTOP-ABPP ratio, cysteine Q07065_C100” value in experiment [8] (100 μM in situ 231) amounted to 1.0. Further, the “isoTOP-ABPP ratio Q9BRF8_C54” value in experiment [9] (100 μM in situ 231) is reported as 1.0. Besides, in [4] (100 μM in situ 231), the “isoTOP-ABPP ratio Q9NQ88_C114” value is reported as 0.8 and the “isoTOP-ABPP ratio Q9NQ88_C161” value is 0.9. Besides, in [5] (100 μM in situ 231), the “isoTOP-ABPP ratio, cysteine Q9Y5Y2_C72” value is 0.5.
Turning to `COc1ccccc1OCCNC(=O)CCl` [compound 28], in experiment [6] (200 μM, insitu, 231), the “isoTOP-ABPP ratio P35754_C23” value came out at 1.4. In addition, the “isoTOP-ABPP ratio Q9Y6G9_C51” value in [10] (231) is recorded as 0.7.
In the case of `Cc1ccc(C=C(C#N)C(=O)NCCN2CCOCC2)cc1` [compound 41], the “isoTOP-ABPP ratio O14980_C528” value in [1] (200 μM, insitu, 231) worked out at 0.9. Further, in experiment [2] (200 μM, insitu, 231), the “isoTOP-ABPP ratio P29590_C389” value was found to be 0.4. Also, the “isoTOP-ABPP ratio P35754_C23” value in [6] (200 μM, insitu, 231) is recorded as 0.5. For the same compound, in experiment [11], the “isoTOP-ABPP ratio P49189_C288” value was found to be 0.8. Further, in experiment [8] (200 μM, insitu, 231), the “isoTOP-ABPP ratio Q07065_C100” value was 1.0. Moreover, the “isoTOP-ABPP ratio Q9BRF8_C54” value in experiment [9] (200 μM, insitu, 231) was found to be 0.7. Also, the “isoTOP-ABPP ratio Q9NQ88_C114” value in [4] (200 μM, insitu, 231) turned out to be 0.6. Further, the “isoTOP-ABPP ratio Q9Y6G9_C51” value in experiment [10] (231) is recorded as 0.7.
On to `CC(Br)C(=O)Nc1cc(C(F)(F)F)cc(C(F)(F)F)c1` (stereo not drawn) [compound 24], for which the “isoTOP-ABPP ratio (reactivity profile), O00541_C272” value on O00541_C272 is recorded as 2.6.
With `C=CC(=O)Nc1cc(F)c(N2CCN(C(=O)OC(C)(C)C)CC2)c(F)c1` [compound 38], the “isoTOP-ABPP ratio O14980_C528” value in experiment [1] (200 μM, insitu, 231) is 2.1. In addition, in [2] (200 μM, insitu, 231), the “isoTOP-ABPP ratio P29590_C389” value was determined as 2.2. Moreover, in experiment [6] (200 μM, insitu, 231), the “isoTOP-ABPP ratio P35754_C23” value came to 0.9. Also, the “isoTOP-ABPP ratio P49189_C288” value in experiment [11] turned out to be 0.7. The “isoTOP-ABPP ratio Q9Y5Y2_C72” value in [5] (200 μM, insitu, 231) was 1.7.
Consider `C=CC(=O)N(Cc1cccnc1)c1cc(C(F)(F)F)cc(C(F)(F)F)c1` [compound 31], for which the “isoTOP-ABPP ratio P29590_C389” value in experiment [2] (200 μM, insitu, 231) is on record as 1.1. In addition, the “isoTOP-ABPP ratio P35754_C23” value in experiment [6] (200 μM, insitu, 231) is 0.6; in [6] (200 μM, insitu, ramos), 1.1. Further, the “isoTOP-ABPP ratio Q9NQ88_C161” value is on record as 1.0 in [4] (200 μM, insitu, 231) and 2.6 in [4] (200 μM, insitu, ramos). The “isoTOP-ABPP ratio Q9Y6G9_C51” value in experiment [10] (ramos) is recorded as 1.6.
For the compound `COc1cc2c(cc1OC)CN(C(=O)CCl)CC2` [compound 8], the “isoTOP-ABPP reactivity Q00765_018 REEP5” value in experiment [7] (200 μM, insitu, 231) is on record as 2.7. Besides, the “isoTOP-ABPP reactivity Q9Y6G9_C51 DYNC1LI1” value in experiment [10] (231) stood at 4.1.
